Measured values reported in ChEMBL document CHEMBL4808180, “Identification of 2,2-Dimethylbutanoic Acid (HST5040), a Clinical Development Candidate for the Treatment of Propionic Acidemia and Methylmalonic Acidemia” (J Med Chem, 2021).

Columns and labels:
[1] = Cmax in Sprague-Dawley rat at 200 mg/kg, po; type: ADME, organism-based; set-up: route oral, dose 200 mg/kg; settings: in vivo
[2] = Reduction of acetyl carnitine in human hepatocytes derived from methylmalonic acidemia patient pretreated for 30 mins followed by 13C-isoleucine addition and measured after 1 hr by MS/MS analysis; type: functional, cell-based; settings: hepatocyte
[3] = Induction of toxicity in minipig assessed as increase in number of cells with cytoplasmic vacuoles in renal tubules at >=50 mg/kg/day; type: organism-based, Sus scrofa domesticus; settings: pig, in vivo
[4] = Half life in Sprague-Dawley rat plasma at 10 mg/kg, po using radiolabeled compound by quantitative whole-body autoradiography; type: ADME, organism-based; settings: in vivo
[5] = target: T1, Multidrug and toxin extrusion protein 1 (Homo sapiens, UniProt Q96FL8); experiment: Inhibition of human MATE1 assessed as reduction in MATE1-mediated metformin transport at 14900 uM relative to control
T1 sequence (Q96FL8 whole entry): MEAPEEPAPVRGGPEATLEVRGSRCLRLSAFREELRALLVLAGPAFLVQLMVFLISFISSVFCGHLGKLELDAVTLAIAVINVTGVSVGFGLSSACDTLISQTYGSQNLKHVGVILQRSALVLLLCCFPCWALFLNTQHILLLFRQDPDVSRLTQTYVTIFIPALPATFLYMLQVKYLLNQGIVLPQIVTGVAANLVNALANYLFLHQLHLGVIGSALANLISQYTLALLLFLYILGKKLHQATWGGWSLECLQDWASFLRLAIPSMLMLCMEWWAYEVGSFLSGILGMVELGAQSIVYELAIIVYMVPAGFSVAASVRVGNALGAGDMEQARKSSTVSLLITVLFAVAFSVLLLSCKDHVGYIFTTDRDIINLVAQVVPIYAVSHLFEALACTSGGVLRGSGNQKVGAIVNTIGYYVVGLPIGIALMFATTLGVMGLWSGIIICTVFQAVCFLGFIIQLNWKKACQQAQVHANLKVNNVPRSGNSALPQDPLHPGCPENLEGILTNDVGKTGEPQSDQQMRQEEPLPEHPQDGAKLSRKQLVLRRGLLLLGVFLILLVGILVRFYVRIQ

[6] = Drug metabolism in human hepatocytes assessed as formation of 2,2-dimethylbutanoic acid-CoA pretreated for 30 mins followed by 13C-isoleucine addition and measured after 1 hr by MS/MS analysis relative to control; type: ADME, cell-based; settings: Hepatocyte
[7] = Drug metabolism in Sprague-Dawley rat feces assessed as HST5040-carnitine metabolite formation at 10 mg/kg administered as single dose by LC/MS analysis; type: ADME, organism-based; settings: in vivo
Cytochrome P450 2B6 = target: T2, Cytochrome P450 2B6 (Homo sapiens, UniProt P20813); experiment: Time-dependent inhibition of CYP2B6 in human liver microsomes using bupropion as substrate preincubated for 30 mins; type: ADME
T2 sequence (P20813 whole entry): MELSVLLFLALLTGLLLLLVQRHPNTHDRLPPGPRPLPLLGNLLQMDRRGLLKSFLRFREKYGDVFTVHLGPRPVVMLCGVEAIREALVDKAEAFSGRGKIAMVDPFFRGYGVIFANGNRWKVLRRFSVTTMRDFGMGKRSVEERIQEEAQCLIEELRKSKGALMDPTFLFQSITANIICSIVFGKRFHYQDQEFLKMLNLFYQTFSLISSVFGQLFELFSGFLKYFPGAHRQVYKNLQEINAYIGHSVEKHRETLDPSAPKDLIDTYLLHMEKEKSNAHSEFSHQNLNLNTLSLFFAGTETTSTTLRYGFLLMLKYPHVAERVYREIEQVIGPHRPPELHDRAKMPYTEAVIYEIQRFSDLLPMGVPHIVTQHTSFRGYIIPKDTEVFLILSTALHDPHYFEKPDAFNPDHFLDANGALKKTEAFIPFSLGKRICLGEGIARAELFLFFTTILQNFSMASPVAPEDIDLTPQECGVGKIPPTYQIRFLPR

[8] = Tmax in CD1 mouse at 30 mg/kg, iv; type: ADME, organism-based; settings: in vivo
[9] = Reduction of propionyl carnitine in human hepatocytes derived from methylmalonic acidemia patient pretreated for 30 mins followed by 13C-isoleucine addition and measured after 1 hr by MS/MS analysis; type: functional, cell-based; settings: hepatocyte
[10] = Drug metabolism in mouse hepatocytes assessed as formation of 2,2-dimethylbutanoic acid-CoA incubated for 1 hrs by MS/MS analysis; type: ADME, cell-based; settings: Hepatocyte
[11] = Drug excretion in Gottingen minipig feces at 10 mg/kg, po using radiolabeled compound by quantitative whole-body autoradiography; type: ADME, organism-based, Sus scrofa domesticus; settings: pig, in vivo
[12] = Cmax in Gottingen minipig at 10 mg/kg, po using radiolabeled compound by quantitative whole-body autoradiography; type: ADME, organism-based, Sus scrofa domesticus; set-up: route oral, dose 10 mg/kg; settings: pig, in vivo
[13] = Drug metabolism in rat hepatocytes assessed as formation of 2,2-dimethylbutanoic acid-CoA incubated for 1 hrs by MS/MS analysis; type: ADME, cell-based; settings: Hepatocyte
[14] = Half life in Sprague-Dawley rat at 50 mg/kg, po; type: ADME, organism-based; settings: in vivo
[15] = Drug metabolism in Gottingen minipig plasma assessed as HST5040-carnitine metabolite formation at 10 mg/kg administered as single dose by LC/MS analysis; type: ADME, organism-based, Sus scrofa domesticus; settings: pig, in vivo
[16] = Reduction of propionyl-CoA in human hepatocytes derived from propionic acidemia patient pretreated for 30 mins followed by 13C-isoleucine addition and measured after 1 hr by MS/MS analysis; type: functional, cell-based; settings: hepatocyte
[17] = target: T3, Multidrug and toxin extrusion protein 2 (Homo sapiens, UniProt Q86VL8); experiment: Inhibition of human MATE2K assessed as reduction in MATE2K-mediated metformin transport at 14900 uM relative to control
T3 sequence (Q86VL8 whole entry): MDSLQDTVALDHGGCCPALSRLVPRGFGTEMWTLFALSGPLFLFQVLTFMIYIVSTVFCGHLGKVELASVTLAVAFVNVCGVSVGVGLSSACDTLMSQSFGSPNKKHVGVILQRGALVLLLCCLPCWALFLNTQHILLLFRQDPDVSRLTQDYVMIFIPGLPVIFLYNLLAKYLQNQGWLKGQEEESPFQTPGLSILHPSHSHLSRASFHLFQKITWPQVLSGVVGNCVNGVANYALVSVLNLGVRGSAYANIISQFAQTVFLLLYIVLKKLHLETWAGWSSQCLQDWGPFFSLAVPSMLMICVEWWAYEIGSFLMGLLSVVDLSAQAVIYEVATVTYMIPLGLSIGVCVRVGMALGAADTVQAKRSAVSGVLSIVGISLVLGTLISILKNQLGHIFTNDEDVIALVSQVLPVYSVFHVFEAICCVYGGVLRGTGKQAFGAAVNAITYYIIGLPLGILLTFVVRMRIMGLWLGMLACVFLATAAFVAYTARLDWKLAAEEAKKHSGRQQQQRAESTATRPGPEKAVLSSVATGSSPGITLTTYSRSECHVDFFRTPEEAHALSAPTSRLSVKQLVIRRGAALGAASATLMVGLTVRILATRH

[18] = AUC (0 to infinity) in Gottingen minipig at 10 mg/kg, po using radiolabeled compound by quantitative whole-body autoradiography; type: ADME, organism-based, Sus scrofa domesticus; set-up: time infinity, route oral, dose 10 mg/kg; settings: pig, in vivo
[19] = Drug excretion in Gottingen minipig urine at 10 mg/kg, po using radiolabeled compound by quantitative whole-body autoradiography; type: ADME, organism-based, Sus scrofa domesticus; settings: pig, in vivo, 96 h
[20] = Cmax in CD1 mouse at 100 mg/kg, po; type: ADME, organism-based; set-up: route oral, dose 100 mg/kg; settings: in vivo
[21] = Drug metabolism in Sprague-Dawley rat feces assessed as HST5040-glucuronide metabolite formation at 10 mg/kg administered as single dose by LC/MS analysis; type: ADME, organism-based; settings: in vivo

Cmax [1]: 113 µg/mL
t1/2 [4]: 2.4 h
Drug metabolism [7]: Metabolite_Detected
IC50 (Cytochrome P450 2B6): > 10000 µM
Tmax [8]: 7.5 min
Drug excretion [11]: 2.26%
Cmax [12]: 16.1 µg/mL
half-life [14]: 3.27 h
Drug metabolism [15]: Metabolite_Detected
AUC [18]: 91300 ng·h/mL
Drug excretion [19]: 77.4%
Cmax [20]: 118 µg/mL
Drug metabolism [21]: Metabolite_Detected
SMILES: CCC(C)(C)C(=O)O [DIMEBUTIC ACID]
EC50 [2]: 4.3 µM
Activity [3]: Toxic
inhibition (INH) [5]: Not Active
EC50 [6]: 8.3 µM
EC50 [9]: 1.4 µM
EC50 [10]: 130 µM
EC50 [13]: 202 µM
EC50 [16]: 0.94 µM
inhibition (INH) [17]: Not Active
